Test results published in patent publication US20130029962A1, “Substituted Heteroaromatic Pyrazole-Containing Carboxamide and Urea Compounds as Vanilloid Receptor Ligands” (Gruenenthal GmbH, priority 2011, published 2013).

target: T1, vanilloid receptor 1 (VR1/TRPV1 receptor) (Homo sapiens, UniProt Q8NER1); assay: Functional testing on the vanilloid receptor 1 (VR1/TRPV1): FLIPR Ca2+ influx assay, displacement of capsaicin; format: cell-based, human being; design: key to mode of action at VR1/TRPV1 (AG, pAG, NE), Cap: AG=agonist; NE=no effect; pAG=partial agonist; conditions: 5 μM compound; capsaicin (Cap); human being; read-out: inhibition (as a percentage) at the concentration after @, Cap
T1 construct: expressed in transfected cells; host or cells: CHO K1
Outline: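 Fluo-4 FLIPR Ca2+ influx in CHO K1 cells transfected with human VR1, measuring displacement of 100 nM capsaicin; rat VR1 agonism/antagonism also assessed in rat dorsal root ganglion neurons cultured 2–3 days at 37° C with 25 ng/mL NGF, then loaded with 2 μM Fluo-4.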

T1 sequence (Q8NER1 whole entry): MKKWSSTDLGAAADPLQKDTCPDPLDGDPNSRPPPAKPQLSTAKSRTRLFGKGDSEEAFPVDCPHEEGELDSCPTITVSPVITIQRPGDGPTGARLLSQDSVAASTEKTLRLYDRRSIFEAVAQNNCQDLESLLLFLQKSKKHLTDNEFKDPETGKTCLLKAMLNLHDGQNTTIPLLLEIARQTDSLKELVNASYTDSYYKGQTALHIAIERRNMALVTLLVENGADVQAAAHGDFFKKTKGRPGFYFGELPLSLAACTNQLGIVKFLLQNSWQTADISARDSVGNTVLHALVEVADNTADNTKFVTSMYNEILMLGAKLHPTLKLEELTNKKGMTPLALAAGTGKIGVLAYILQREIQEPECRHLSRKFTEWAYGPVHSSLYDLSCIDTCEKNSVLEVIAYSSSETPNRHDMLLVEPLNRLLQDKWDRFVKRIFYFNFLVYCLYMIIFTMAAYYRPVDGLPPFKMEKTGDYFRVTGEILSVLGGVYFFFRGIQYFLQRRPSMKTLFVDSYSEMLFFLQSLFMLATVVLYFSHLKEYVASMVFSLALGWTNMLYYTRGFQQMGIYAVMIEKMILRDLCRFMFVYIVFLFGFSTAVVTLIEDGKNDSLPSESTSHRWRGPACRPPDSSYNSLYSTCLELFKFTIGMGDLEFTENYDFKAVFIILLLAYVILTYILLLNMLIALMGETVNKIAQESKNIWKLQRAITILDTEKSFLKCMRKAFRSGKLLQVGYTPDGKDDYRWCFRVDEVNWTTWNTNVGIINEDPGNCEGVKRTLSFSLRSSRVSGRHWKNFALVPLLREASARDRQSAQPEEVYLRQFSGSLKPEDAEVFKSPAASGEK

Question: How did the inhibition at 5 µM turn out when `O=C(NCc1cc(C(F)(F)F)nn1-c1cccc(Cl)c1)Nc1ccccn1` [Example 5, 1-((1-(3-chlorophenyl)-3-(trifluoromethyl)-1H-pyrazol-5-yl)methyl)-3-(pyridin-2-yl)urea] was run?
Answer: Its inhibition at 5 µM is 29%.

Question: With `CC(C(=O)NCc1cc(C(C)(C)C)nn1-c1cccc(Cl)c1)c1ccc(NC(=O)c2ccccc2)nc1` (centres unmarked) [Example 91, N-(5-(1-((3-tert-butyl-1-(3-chlorophenyl)-1H-pyrazol-5-yl)methylamino)-1-oxopropan-2-yl)pyridin-2-yl)benzamide] as the molecule, how does the inhibition at 5 µM read?
Answer: Its inhibition at 5 µM is 98%.

Question: Which inhibition at 5 µM does the source give for `CC(C(=O)NCc1cc(C(F)(F)F)nn1-c1cccc(Cl)c1)c1ccc(C(=O)Nc2ccc(C(F)(F)F)cc2)nc1` (centres unmarked) [Example 59, 5-(1-((1-(3-chlorophenyl)-3-(trifluoromethyl)-1H-pyrazol-5-yl)methylamino)-1-oxopropan-2-yl)-N-(4-(trifluoromethyl)phenyl)picolinamide] here?
Answer: Its inhibition at 5 µM is 24%.

Question: With `Cc1ncc(NC(=O)NCc2cc(C(F)(F)F)nn2-c2cccc(Cl)c2)cn1` [Example 19, 1-((1-(3-chlorophenyl)-3-(trifluoromethyl)-1H-pyrazol-5-yl)methyl)-3-(2-methylpyrimidin-5-yl)urea] as the molecule, how does the inhibition at 5 µM read?
Answer: Its inhibition at 5 µM is 45%.

Question: How did the inhibition at 5 µM turn out when `O=C(NCc1cc(C(F)(F)F)nn1-c1cccc(Cl)c1)Nc1ccncc1` [Example 12, 1-((1-(3-chlorophenyl)-3-(trifluoromethyl)-1H-pyrazol-5-yl)methyl)-3-(pyridin-4-yl)urea] was run?
Answer: The inhibition at 5 µM was 85%.

Question: Which inhibition at 5 µM does the source give for `O=C(Cc1ccncn1)NCc1cc(C(F)(F)F)nn1-c1cccc(Cl)c1` [Example 13, N-((1-(3-chlorophenyl)-3-(trifluoromethyl)-1H-pyrazol-5-yl)methyl)-2-(pyrimidin-4-yl)acetamide] here?
Answer: Its inhibition at 5 µM is 30%.

same assay, conditions: capsaicin (Cap) as stimulus; Ki from IC50 by Cheng-Prusoff; read-out: (f) Ki (human being) [nM] Cap

Question: For `CC(C)(C)c1cc(CNC(=O)Nc2ccc(N3CC[C@H](O)C3)nc2)n(-c2cccc(Cl)c2)n1` [Example 127, (S)-1-((3-tert-butyl-1-(3-chlorophenyl)-1H-pyrazol-5-yl)methyl)-3-(6-(3-hydroxypyrrolidin-1-yl)pyridin-3-yl)urea], which Ki is on record?
Answer: Its Ki is 61 nM.

Question: How did the Ki turn out when `CC(C(=O)NCc1cc(C(F)(F)F)nn1-c1cccc(Cl)c1)c1ccc(N(C)CCO)nc1` (centres unmarked) [Example 148, N-((1-(3-chlorophenyl)-3-(trifluoromethyl)-1H-pyrazol-5-yl)methyl)-2-(6-((2-hydroxyethyl)(methyl)amino)pyridin-3-yl)propanamide] was run?
Answer: Its Ki is 15 nM.

Question: `CN(CCO)c1ccc(NC(=O)NCc2cc(C(F)(F)F)nn2-c2cccc(Cl)c2)cn1` [Example 90, 1-((1-(3-chlorophenyl)-3-(trifluoromethyl)-1H-pyrazol-5-yl)methyl)-3-(6-((2-hydroxyethyl)(methyl)amino)pyridin-3-yl)urea] was tested. Which Ki did it give?
Answer: The Ki was 44 nM.

Question: For `O=C(NCc1cc(C2CC2)nn1-c1cccc(Cl)c1)Nc1ccc(NCCO)nc1` [Example 72, 1-((1-(3-chlorophenyl)-3-cyclopropyl-1H-pyrazol-5-yl)methyl)-3-(6-(2-hydroxyethylamino)pyridin-3-yl)urea], which Ki is on record?
Answer: The Ki was 17 nM.

Question: Which Ki does the source give for `COc1cc(C(C)C(=O)NCc2cc(C(F)(F)F)nn2-c2cccc(Cl)c2)cnc1NS(C)(=O)=O` (centres unmarked) [Example 104, N-((1-(3-chlorophenyl)-3-(trifluoromethyl)-1H-pyrazol-5-yl)methyl)-2-(5-methoxy-6-(methylsulfonamido)pyridin-3-yl)propanamide] here?
Answer: The Ki was 3 nM.

Question: Which Ki does the source give for `CC(C(=O)NCc1cc(C(F)(F)F)nn1-c1cccc(Cl)c1)c1ccc(NC(=O)c2ccc(F)cc2)nc1` (centres unmarked) [Example 94, N-(5-(1-((1-(3-chlorophenyl)-3-(trifluoromethyl)-1H-pyrazol-5-yl)methylamino)-1-oxopropan-2-yl)pyridin-2-yl)-4-fluorobenzamide] here?
Answer: The Ki was 4 nM.

Question: With `CC(C(=O)NCc1cc(C(F)(F)F)nn1-c1cccc(Cl)c1)c1ccc(CO)nc1` (centres unmarked) [Example 30, N-((1-(3-chlorophenyl)-3-(trifluoromethyl)-1H-pyrazol-5-yl)methyl)-2-(6-(hydroxymethyl)pyridin-3-yl)propanamide] as the molecule, how does the Ki read?
Answer: The Ki was 1 nM.

Question: With `CC(C)(C)c1cc(CNC(=O)Nc2ccc(N3CC(O)C3)nc2)n(-c2cccc(F)c2)n1` [Example 110, 1-((3-tert-butyl-1-(3-fluorophenyl)-1H-pyrazol-5-yl)methyl)-3-(6-(3-hydroxyazetidin-1-yl)pyridin-3-yl)urea] as the molecule, how does the Ki read?
Answer: The Ki was 37 nM.

Question: With `COCCNc1ccc(C(C)C(=O)NCc2cc(C(F)(F)F)nn2-c2cccc(Cl)c2)cn1` (centres unmarked) [Example 147, N-((1-(3-chlorophenyl)-3-(trifluoromethyl)-1H-pyrazol-5-yl)methyl)-2-(6-(2-methoxyethylamino)pyridin-3-yl)propanamide] as the molecule, how does the Ki read?
Answer: The Ki was 18 nM.

Question: For `Cc1cc(C)c(NC(=O)NCc2cc(C(F)(F)F)nn2-c2cccc(Cl)c2)cn1` [Example 138, 1-((1-(3-chlorophenyl)-3-(trifluoromethyl)-1H-pyrazol-5-yl)methyl)-3-(4,6-dimethylpyridin-3-yl)urea], which Ki is on record?
Answer: Its Ki is 90 nM.

Question: With `CC(C)(C)c1cc(CNC(=O)Nc2ccc(NCCO)nc2)n(-c2cccc(Cl)c2)n1` [Example 70, 1-((3-tert-butyl-1-(3-chlorophenyl)-1H-pyrazol-5-yl)methyl)-3-(6-(2-hydroxyethylamino)pyridin-3-yl)urea] as the molecule, how does the Ki read?
Answer: The Ki was 3 nM.

Question: `CC(C(=O)NCc1cc(C(F)(F)F)nn1-c1ccc(F)c(Cl)c1)c1ccc(CCO)nc1` (centres unmarked) [Example 149, N-((1-(3-chloro-4-fluorophenyl)-3-(trifluoromethyl)-1H-pyrazol-5-yl)methyl)-2-(6-(2-hydroxyethyl)pyridin-3-yl)propanamide] was tested. Which Ki did it give?
Answer: The Ki was 28 nM.

Question: With `CC(C)(C)c1cc(CNC(=O)Nc2ccc(C(N)=O)nc2)n(-c2cccc(Cl)c2)n1` [Example 25, 5-(3-((3-tert-butyl-1-(3-chlorophenyl)-1H-pyrazol-5-yl)methyl)ureido)picolinamide] as the molecule, how does the Ki read?
Answer: The Ki was 31 nM.

Question: How did the Ki turn out when `O=C(NCc1cc(C(F)(F)F)nn1-c1cccc(Cl)c1)Nc1ccc(N2CCCC2)nc1` [Example 121, 1-((1-(3-chlorophenyl)-3-(trifluoromethyl)-1H-pyrazol-5-yl)methyl)-3-(6-(pyrrolidin-1-yl)pyridin-3-yl)urea] was run?
Answer: Its Ki is 47 nM.

Question: For `CC(C(=O)NCc1cc(C(C)(C)C)nn1-c1cccc(Cl)c1)c1ccc(NC(=O)c2ccc(F)cc2)nc1` (centres unmarked) [Example 93, N-(5-(1-((3-tert-butyl-1-(3-chlorophenyl)-1H-pyrazol-5-yl)methylamino)-1-oxopropan-2-yl)pyridin-2-yl)-4-fluorobenzamide], which Ki is on record?
Answer: Its Ki is 2 nM.

Question: Which Ki does the source give for `CC(C(=O)NCc1cc(C2CC2)nn1-c1cccc(Cl)c1)c1ccc(CCO)nc1` (centres unmarked) [Example 150, N-((1-(3-chlorophenyl)-3-cyclopropyl-1H-pyrazol-5-yl)methyl)-2-(6-(2-hydroxyethyl)pyridin-3-yl)propanamide] here?
Answer: The Ki was 59 nM.

Question: Which Ki does the source give for `COCCNc1ccc(NC(=O)NCc2cc(C(F)(F)F)nn2-c2cccc(Cl)c2)cn1` [Example 69, 1-((1-(3-chlorophenyl)-3-(trifluoromethyl)-1H-pyrazol-5-yl)methyl)-3-(6-(2-methoxyethylamino)pyridin-3-yl)urea] here?
Answer: Its Ki is 51 nM.

same assay, conditions: capsaicin (Cap); human being

Question: Which “mode of action at VR1/TRPV1 (AG, pAG, NE), Cap” value (shortened to “mode of action at VR1/TRPV1”) does the source give for `O=C(NCc1cc(C(F)(F)F)nn1-c1cccc(Cl)c1)Nc1ccnnc1` [Example 15, 1-((1-(3-chlorophenyl)-3-(trifluoromethyl)-1H-pyrazol-5-yl)methyl)-3-(pyridazin-4-yl)urea] here?
Answer: The value was “AG”.

Question: `CC(C(=O)NCc1cc(C(C)(C)C)nn1-c1cccc(Cl)c1)c1ccc(NC(=O)c2ccccc2)nc1` (centres unmarked) [Example 91, N-(5-(1-((3-tert-butyl-1-(3-chlorophenyl)-1H-pyrazol-5-yl)methylamino)-1-oxopropan-2-yl)pyridin-2-yl)benzamide] was tested. Which “mode of action at VR1/TRPV1” value did it give?
Answer: Its value is “AG”.

Question: With `O=C(NCc1cc(C(F)(F)F)nn1-c1cccc(Cl)c1)Nc1ccncc1` [Example 12, 1-((1-(3-chlorophenyl)-3-(trifluoromethyl)-1H-pyrazol-5-yl)methyl)-3-(pyridin-4-yl)urea] as the molecule, how does the “mode of action at VR1/TRPV1” value read?
Answer: The value was “AG”.
